Test results: ChEMBL document CHEMBL3046452, “Synthesis and pharmacological evaluation of some novel 2-pyrazolines bearing benzenesulfonamide as anti-inflammatory and blood glucose lowering agents” (Med Chem Res, 2013)

How the values were obtained:
Rattus norvegicus [1] = assay: Ulcerogenic activity in fasted Rattus norvegicus Wistar albino (rat) at 0.15 mmol/kg , po measured after 6 hr; format: toxicity, organism-based; conditions: in vivo
Rattus norvegicus [2] = assay: Anti-inflammatory activity in Rattus norvegicus Wistar albino (rat) assessed as inhibition of carrageenan-induced paw edema at 0.05 mmol/kg administered 30 min prior to carrageenan-challenge measured after 3 hr relative to control; format: functional
Rattus norvegicus [3] = assay: Antidiabetic activity in fasted glucose fed hyperglycemic normal Rattus norvegicus Wistar albino (rat) assessed as blood glucose level at 0.05 mmol/kg administered 30 min prior to glucose-challenge measured after 60 min (reference value: 126.5 +/- 3.8 mg/dl); format: functional
Rattus norvegicus [4] = assay: Anti-inflammatory activity in Rattus norvegicus Wistar albino (rat) assessed as inhibition of carrageenan-induced paw edema at 0.05 mmol/kg administered 30 min prior to carrageenan-challenge measured after 5 hr relative to control; format: functional

Row | Compound | Activity (Rattus norvegicus [1]) | inhibition in vivo at 50 µmol/kg (Rattus norvegicus [2]) [%] | Activity (Rattus norvegicus [3]) [mg/dL] | inhibition in vivo at 50 µmol/kg (Rattus norvegicus [4]) [%]
1 | NS(=O)(=O)c1ccc(N2N=C(c3cccc(O)c3)C[C@H]2c2c3ccccc3cc3ccccc23)cc1 | Non-toxic | 59.8 | 136.6 | 77.7
2 | COc1ccc([C@@H]2CC(c3cccc(O)c3)=NN2c2ccc(S(N)(=O)=O)cc2)cc1OC | – | 55.9 | 111 | 66.7
3 | NS(=O)(=O)c1ccc(N2N=C(c3cccc(O)c3)C[C@H]2c2ccccc2)cc1 | Non-toxic | 35.8 | 126.3 | 77.7
4 | Cc1ccc(S(=O)(=O)NC(=O)NN2CC3CCCC3C2)cc1 (configuration not stated) [GLICLAZIDE] | – | – | 85.83 | –
5 | Cc1ccc(-c2cc(C(F)(F)F)nn2-c2ccc(S(N)(=O)=O)cc2)cc1 [CELECOXIB] | – | 75.9 | – | 82.2
6 | NS(=O)(=O)c1ccc(N2N=C(c3cccc(O)c3)C[C@H]2c2ccco2)cc1 | – | 35.8 | 133 | 29.6
7 | COc1cc([C@@H]2CC(c3cccc(O)c3)=NN2c2ccc(S(N)(=O)=O)cc2)cc(OC)c1OC | – | 51.9 | 94.6 | 74.4
8 | NS(=O)(=O)c1ccc(N2N=C(c3cccc(O)c3)C[C@H]2c2ccccc2O)cc1 | – | 35.4 | 133 | 55.5
9 | NS(=O)(=O)c1ccc(N2N=C(c3cccc(O)c3)C[C@H]2c2ccc(O)cc2)cc1 | Non-toxic | 64.7 | 121 | 77.7
10 | NS(=O)(=O)c1ccc(N2N=C(c3cccc(O)c3)C[C@H]2c2ccccc2Cl)cc1 | – | 32.6 | 121 | 70.3
11 | COc1ccc([C@@H]2CC(c3cccc(O)c3)=NN2c2ccc(S(N)(=O)=O)cc2)cc1 | – | 64.7 | 116.5 | 62.9
12 | Cc1ccc([C@@H]2CC(c3cccc(O)c3)=NN2c2ccc(S(N)(=O)=O)cc2)cc1 | – | 64.7 | 138.6 | 66
13 | NS(=O)(=O)c1ccc(N2N=C(c3cccc(O)c3)C[C@H]2c2ccc(Cl)cc2)cc1 | – | 19.2 | 134 | 51.8
14 | NS(=O)(=O)c1ccc(N2N=C(c3cccc(O)c3)C[C@H]2/C=C/c2ccccc2)cc1 | – | 39.9 | 131 | 59.2
